Measured values reported in patent publication US9695155B2, “Herbicidal substituted pyrimidinyloxy benzene compounds” (E. I. DU PONT DE NEMOURS AND COMPANY, priority 2013, dated 2017).

Key:
giant foxtail [1] = assay: Test A postemergence; assay type: in vivo, Setaria faberii; details: 1000 g ai/ha, 0 to 100 scale, 0 no effect, 100 complete control
Procedure, shortened: (§1)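 Scoring: eye-based comparison with untreated controls, 0 for no effect through 100 for complete control, at about day 10. Treatments: directed soil spray preemergence; foliar spray postemergence on 2–10 cm plants at the one- to two-leaf stage. Medium: loam soil with sand.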

Italian ryegrass [2] = assay: Test A postemergence; assay type: in vivo, Lolium multiflorum; details: 1000 g ai/ha, 0 to 100 scale, 0 no effect, 100 complete control
Procedure, shortened: as §1

barnyardgrass [3] = assay: Test A preemergence; assay type: in vivo, Echinochloa crus-galli; details: 1000 g ai/ha, 0 to 100 scale, 0 no effect, 100 complete control, approx. 10 days
Procedure, shortened: as §1

pigweed [4] = assay: Test A postemergence; assay type: in vivo, Amaranthus retroflexus; details: 1000 g ai/ha, 0 to 100 scale, 0 no effect, 100 complete control
Procedure, shortened: as §1

kochia [5] = assay: Test A preemergence; assay type: in vivo, Kochia scoparia; details: 1000 g ai/ha, 0 to 100 scale, 0 no effect, 100 complete control, approx. 10 days
Procedure, shortened: as §1

pigweed [6] = assay: Test A preemergence; assay type: in vivo, Amaranthus retroflexus; details: 1000 g ai/ha, 0 to 100 scale, 0 no effect, 100 complete control, approx. 10 days
Procedure, shortened: as §1

kochia [7] = assay: Test A postemergence; assay type: in vivo, Kochia scoparia; details: 1000 g ai/ha, 0 to 100 scale, 0 no effect, 100 complete control
Description: (§2) Seeds of plant species selected from barnyardgrass (Echinochloa crus-galli), kochia (Kochia scoparia), ragweed (common ragweed, Ambrosia elatior), Italian ryegrass (Lolium multiflorum), large (Lg) crabgrass (Digitaria sanguinalis), giant foxtail (Setaria faberii), morningglory (Ipomoea spp.), pigweed (Amaranthus retroflexus), velvetleaf (Abutilon theophrasti), wheat (Triticum aestivum), and corn (Zea mays) were planted into a blend of loam soil and sand and treated preemergence with a directed soil spray using test chemicals formulated in a non-phytotoxic solvent mixture which included a surfactant.
(§3) At the same time, plants selected from these crop and weed species and also blackgrass (Alopecurus myosuroides), and galium (catchweed bedstraw, Galium aparine) were planted in pots containing the same blend of loam soil and sand and treated with postemergence applications of test chemicals formulated in the same manner. Plants ranged in height from 2 to 10 cm and were in the one- to two-leaf stage for the postemergence treatment. Treated plants and untreated controls were maintained in a greenhouse for approximately 10 days, after which time all treated plants were compared to untreated controls and visually evaluated for injury. Plant response ratings, summarized in Table A, are based on a 0 to 100 scale where 0 is no effect and 100 is complete control. A dash (-) response means no test result.

barnyardgrass [8] = assay: Test A postemergence; assay type: in vivo, Echinochloa crus-galli; details: 1000 g ai/ha, 0 to 100 scale, 0 no effect, 100 complete control
Procedure, shortened: as §1

Italian ryegrass [9] = assay: Test A preemergence; assay type: in vivo, Lolium multiflorum; details: 1000 g ai/ha, 0 to 100 scale, 0 no effect, 100 complete control, approx. 10 days
Procedure, shortened: as §1

ragweed [10] = assay: Test A preemergence; assay type: in vivo, Ambrosia elatior; details: 1000 g ai/ha, 0 to 100 scale, 0 no effect, 100 complete control, approx. 10 days
Description: as §2, §3

ragweed [11] = assay: Test A postemergence; assay type: in vivo, Ambrosia elatior; details: 1000 g ai/ha, 0 to 100 scale, 0 no effect, 100 complete control
Procedure, shortened: as §1

galium = assay: Test A postemergence; assay type: in vivo, Galium aparine; details: 1000 g ai/ha, 0 to 100 scale, 0 no effect, 100 complete control
Description: as §2, §3

giant foxtail [12] = assay: Test A preemergence; assay type: in vivo, Setaria faberii; details: 1000 g ai/ha, 0 to 100 scale, 0 no effect, 100 complete control, approx. 10 days
Procedure, shortened: as §1

corn = assay: Test A postemergence; assay type: in vivo, Zea mays; details: 1000 g ai/ha, 0 to 100 scale, 0 no effect, 100 complete control
Procedure, shortened: as §1

blackgrass = assay: Test A postemergence; assay type: in vivo, Alopecurus myosuroides; details: 1000 g ai/ha, 0 to 100 scale, 0 no effect, 100 complete control
Procedure, shortened: as §1

wheat = assay: Test A postemergence; assay type: in vivo, Triticum aestivum; details: 1000 g ai/ha, 0 to 100 scale, 0 no effect, 100 complete control
Procedure, shortened: as §1

Compound: CC(C)(C)NS(=O)(=O)c1cnn(-c2ccccc2Oc2ncc(Cl)cn2)c1 [Compound 283]
- Plant response rating, Foxtail, Giant (giant foxtail [1]): 0
- Plant response rating, Ryegrass, Italian (Italian ryegrass [2]): 0
- Barnyardgrass plant response rating (barnyardgrass [3]): 0
- Plant response rating, Pigweed (pigweed [4]): 20
- Kochia plant response rating (kochia [5]): 0
- Pigweed plant response rating (pigweed [6]): 0
- Plant response rating, Kochia (kochia [7]): 10
- Plant response rating, Barnyardgrass (barnyardgrass [8]): 0
- Ryegrass, Italian plant response rating (Italian ryegrass [9]): 0
- Ragweed plant response rating (ragweed [10]): 0
- Plant response rating, Ragweed (ragweed [11]): 20
- Plant response rating, Galium (galium): 30
- Foxtail, Giant plant response rating (giant foxtail [12]): 0
- Plant response rating, Corn (corn): 0
- Plant response rating, Blackgrass (blackgrass): 10
- Plant response rating, Wheat (wheat): 0

Compound: C[Si](C)(C)c1cn(-c2c(Br)cccc2Oc2ncc(Cl)cn2)nn1 [Compound 300]
- Plant response rating, Foxtail, Giant (giant foxtail [1]): 30
- Plant response rating, Ryegrass, Italian (Italian ryegrass [2]): 0
- Barnyardgrass plant response rating (barnyardgrass [3]): 20
- Plant response rating, Pigweed (pigweed [4]): 60
- Kochia plant response rating (kochia [5]): 60
- Pigweed plant response rating (pigweed [6]): 100
- Plant response rating, Kochia (kochia [7]): 20
- Plant response rating, Barnyardgrass (barnyardgrass [8]): 0
- Ryegrass, Italian plant response rating (Italian ryegrass [9]): 20
- Ragweed plant response rating (ragweed [10]): 0
- Plant response rating, Ragweed (ragweed [11]): 0
- Plant response rating, Galium (galium): 40
- Foxtail, Giant plant response rating (giant foxtail [12]): 80
- Plant response rating, Corn (corn): 10
- Plant response rating, Blackgrass (blackgrass): 0
- Plant response rating, Wheat (wheat): 0

Compound: CCOC(=O)c1cn(-c2ccccc2Oc2ncc(Cl)cn2)nn1 [Compound 302]
- Plant response rating, Foxtail, Giant (giant foxtail [1]): 0
- Plant response rating, Ryegrass, Italian (Italian ryegrass [2]): 0
- Barnyardgrass plant response rating (barnyardgrass [3]): 0
- Plant response rating, Pigweed (pigweed [4]): 0
- Kochia plant response rating (kochia [5]): 0
- Pigweed plant response rating (pigweed [6]): 0
- Plant response rating, Kochia (kochia [7]): 0
- Plant response rating, Barnyardgrass (barnyardgrass [8]): 0
- Ryegrass, Italian plant response rating (Italian ryegrass [9]): 0
- Ragweed plant response rating (ragweed [10]): 0
- Plant response rating, Ragweed (ragweed [11]): 0
- Plant response rating, Galium (galium): 0
- Foxtail, Giant plant response rating (giant foxtail [12]): 0
- Plant response rating, Corn (corn): 0
- Plant response rating, Blackgrass (blackgrass): 0
- Plant response rating, Wheat (wheat): 0
